The structures appear in SMILES notation. pIC50: −log10 of the molar value. Where two headings read alike, the source gives them in different places. Some results are limits rather than exact numbers.

Type in all cases: cell-based
The subject of one assay is pgRNA. Put plainly: pgRNA, HBV-infected HepaRG. The following applies: Hepatitis B virus. As to the method: (§1) Following 4 day of maturation with 1 μM MB-1, HLC were incubated with HBV (purified from CHB individuals) at multiplicity of infection (MOI) 10-40 without PEG for 24 hr; virus inoculum was removed the following day. HBV infection in PHH was performed at MOI 40+4% PEG. Compound treatment in HLC and PHH was started at day 3 post infection. Compound (in powder) was dissolved in DMSO; the final concentration of DMSO added to cells is 1%. Fresh compound was replenished every 2 day until cells were harvested at day 10 (PHH), or day 14 (HLC). Compound effect on HBV and cellular toxicity was measured by multiplex assay (HBsAg, HBeAg, albumin), branched DNA (pgRNA), or digital PCR (cccDNA) and depicted as % of inhibition compared to DMSO control. Graphs were prepared using Spotfire software.
Levels of pgRNA in infected cells (96-well plate) were measured using QuantiGene Singleplex 2.0 assay (Affymetrix), a hybridization-based assay that utilizes the xMAP™ Luminex magnetic beads and branched DNA (bDNA) signal amplification technology. The assay is performed in 96-well plate according to manufacturer's recommendation. Briefly, cells were lysed and lysates were incubated with HBV probe sets panel at 50-55° C. for 30 min then stored at −80° C. Signal amplification is achieved via sequential hybridization of PreAmplifier, Amplifier, and Label Probe. After adding Streptavidin phycoerythrin (SAPE) substrate, the signal is read using a FlexMap 3D (Luminex) instrument.
Most of HBV in vitro studies, including evaluation of compound antiviral activity, are performed in hepatoma cell lines (HepaRG or HepG2-NTCP) infected with cell culture-derived HBV (e.g. HepG2.2.15-derived virus, GT D). As evaluation of cccDNA destabilizers was performed with patient-derived HBV GT D in PHH (see FIGS. 3F and 4A-4B), the inventors asked whether compound potency would be similar when tested against patient-derived HBV isolates from other GTs, or cell culture-derived virus (HepG2.2.15). To address the first question, PHH (in 384-well plate) were infected with four clinical HBV isolates (GT A-D, at MOI 40). At day 3 pi, cells were treated with compound 7, or DMSO, every other day until harvested and analysed at day 10 pi. Several observations are noteworthy. First, clinical HBV isolates across GTs varied in their replication capacity in PHH; as noted earlier in HLC (see FIG. 21) and also by others (Mabit et al., 1996; Sozzi et al, 2016). […] For each isolate, the amounts of secreted viral antigens are in close agreement with their cccDNA levels; thus, GT A isolate had the highest amount of cccDNA (˜11,000 copies/well), followed by GT C, B, and D (see FIG. 5B). […] Next, the inventors evaluated whether antiviral activity of compound 7 could be affected by the source of virus inoculum. […]

Assay [1] relates to cccDNA. Put plainly: cccDNA (digital PCR), HBV-infected HepaRG. Conditions: for IC50: Hepatitis B virus.
Assay [2] has as its system cccDNA. Put plainly: cccDNA assay (digital PCR), HBV-infected PHH. How it is done:
Fresh primary human hepatocytes (PXB-PHH) harvested from humanized mice (uPA/SCID mice)—herein called PHH—were obtained from PhoenixBio Co., Ltd (Japan). Cells were seeded on a collagen I-coated plate at the following cell density: 35,000 cells/well (384-well), 70,000 cells/well (96-well), or, 400,000 cells/well (24-well) in modified hepatocyte clonal growth medium (dHCGM). dHCGM is a DMEM medium containing 100 U/ml Penicillin, 100 μg/ml Streptomycin, 20 mM Hopes, 44 mM NaHCO3, 15 μg/ml L-proline, 0.25 μg/ml insulin, 50 nM Dexamethazone, 5 ng/ml EGF, 0.1 mM Asc-2P, 2% DMSO and 10% FBS (Ishida et al., 2015). Cells were cultured at 37° C. incubator in a humidified atmosphere with 5% CO2. Culture medium was replaced 24 h post-plating and every 2 days until harvest.
as §1
HBV-infected cells (in 384- or 96-well plate) were lysed with Cells-to-CT Lysis Reagents according to manufacturer's instruction (Thermo Scientific). To remove excess of RC-DNA, samples were digested with T5 exonuclease (10 U) (New England Biolabs), at 37° C. for 1 hr; enzyme was inactivated by heating the samples at 80° C. for 15 min. DNA samples (1.2 μl) were added into the digital PCR Master Mix (QuantStudio Digital PCR Kit, Thermo Scientific) containing cccDNA primers 5′-[…] (forward), 5′-[…] (reverse), and […] (probe) (Werle-Lapostolle et al., 2004) in a total volume 5 μl, and loaded into dPCR array using AccuFill System (AB). Each sample was loaded into 4 subarrays/256 through-holes. Digital PCR assay was run on QuantStudio 12K Flex (AB) and data was analyzed by Digital Suite Software (AB).

In general, IC50 refers to the concentration that inhibits the measured activity by half. For `O=C(NC(CO)CO)c1c[nH]c2ncc(C3CC3)nc12` [compound 7], the IC50 with pgRNA (HepG2.2.15-derived HBV GT D, MOI 40, read-out: pgRNA IC50 (μM) Median) worked out at 16.8 µM; in the assay with pgRNA (HepG2.2.15-derived HBV GT D, MOI 125, read-out: pgRNA IC50 (μM) Median), 26.6 µM; in the assay on pgRNA (patient-derived HBV GT D, MOI 40, read-out: pgRNA IC50 (μM) Median), 1.93 µM; with pgRNA (patient-derived HBV GT D, MOI 125, read-out: pgRNA IC50 (μM) Median), 4.62 µM; in the assay with cccDNA [1] (HepG2.2.15-derived HBV GT D, MOI 40, read-out: cccDNA IC50 (μM) Median), 25.9 µM; in the assay with cccDNA [1] (HepG2.2.15-derived HBV GT D, MOI 125, read-out: cccDNA IC50 (μM) Median), 27.2 µM. The half-maximal inhibitory concentration (IC50) worked out at 7.05 µM with cccDNA [1] (patient-derived HBV GT D, MOI 125, read-out: cccDNA IC50 (μM) Median); 7.15 µM with cccDNA [2] (Hepatitis B virus, 240 h, patient-derived HBV GT A, MOI 40, day 10 pi, read-out: cccDNA IC50 (μM) Median); 6.56 µM in the assay on cccDNA [2] (Hepatitis B virus, 240 h, patient-derived HBV GT B, MOI 40, day 10 pi, read-out: cccDNA IC50 (μM) Median); 6.2 µM in the assay on cccDNA [2] (Hepatitis B virus, 240 h, patient-derived HBV GT C, MOI 40, day 10 pi, read-out: cccDNA IC50 (μM) Median); 6.69 µM in the assay on cccDNA [2] (Hepatitis B virus, 240 h, patient-derived HBV GT D, MOI 40, day 10 pi (Table 5), read-out: cccDNA IC50 (μM) Median); 25 µM in the assay on cccDNA [2] (Hepatitis B virus, HepG2.2.15-derived HBV GT D, MOI 40, read-out: cccDNA IC50 (μM) Median). Moreover, the IC50 with cccDNA [2] (Hepatitis B virus, HepG2.2.15-derived HBV GT D, MOI 125, read-out: cccDNA IC50 (μM) Median) was 25.2 µM; in the assay with cccDNA [2] (Hepatitis B virus, patient-derived HBV (GT D), read-out: cccDNA IC50 (μM) Median) it was below 10 µM; in the assay with cccDNA [2] (Hepatitis B virus, patient-derived HBV GT D, MOI 40 (Table 6), read-out: cccDNA IC50 (μM) Median) it was 6.41 µM; with cccDNA [2] (Hepatitis B virus, patient-derived HBV GT D, MOI 125, read-out: cccDNA IC50 (μM) Median), 6.78 µM; with cccDNA [2] (patient-derived HBV (GT D), read-out: cccDNA IC50 (μM) Median), 6.76 µM. For the same molecule, the “cccDNA IC50 (μM) Median” value in the assay with cccDNA [1] (patient-derived HBV GT D, MOI 40) is listed as “below LLOQ”. In the assay on cccDNA [2] (Hepatitis B virus, patient-derived HBV GT A-D, read-out: cccDNA IC50s), the pIC50 was 5.15 to 5.21.

For the origin of these results see patent US20230248723A1, “PYRROLO[2,3-B]PYRAZINE COMPOUNDS AS CCCDNA INHIBITORS FOR THE TREATMENT OF HEPATITIS B VIRUS (HBV) INFECTION” (Hoffmann-La Roche Inc., priority 2017, published 2023).
